Test results published in ChEMBL document CHEMBL1201862, “PubChem BioAssay data set” (2004).
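Method: 48-hour compound exposure of cells in 96-well plates, five concentrations, linear interpolation of endpoints. GI50 is the concentration that inhibits growth by half.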 Calls of active or inactive are those of the source. No stated cut-off is given here; in the data, active = GI50 up to about 1.1 µM and inactive = higher.

Legend:
Test in all cases: inhibition of tumour cell growth, NCI panel, 48 h
[1] = system: Hs-578T
[2] = system: DU-145
[3] = system: UACC-257
[4] = system: RXF 393
[5] = system: ACHN
[6] = system: NCI-H23
[7] = system: HCT-116
[8] = system: SR
[9] = system: HT-29
[10] = system: HOP-92
[11] = system: HCC 2998
[12] = system: Malme-3M
[13] = system: OVCAR-5
[14] = system: SF-539
[15] = system: M19-MEL
[16] = system: MCF7
[17] = system: SK-OV-3
[18] = system: NCI-H522
[19] = system: UACC-62
[20] = system: NCI-H460

| SMILES | GI50 [1] | GI50 [2] | GI50 [3] | GI50 [4] | GI50 [5] | GI50 [6] | GI50 [7] | GI50 [8] | GI50 [9] | GI50 [10] | GI50 [11] | GI50 [12] | GI50 [13] | GI50 [14] | GI50 [15] | GI50 [16] | GI50 [17] | GI50 [18] | GI50 [19] | GI50 [20] |
| --- | --- | --- | --- | --- | --- | --- | --- | --- | --- | --- | --- | --- | --- | --- | --- | --- | --- | --- | --- | --- |
| Clc1ccc2ns[s+]c2c1 | 78 µM (inactive) | 8.79 µM (inactive) | 14.5 µM (inactive) | > 100 µM (inactive) | 0.449 µM (active) | 11.7 µM (inactive) | 1.03 µM (active) | 1.34 µM (inactive) | 3.39 µM (inactive) | 22.5 µM (inactive) | 17.5 µM (inactive) | 32.2 µM (inactive) | 6.58 µM (inactive) | 3.53 µM (inactive) | 1.97 µM (inactive) | 3.33 µM (inactive) | > 100 µM (inactive) | 11.1 µM (inactive) | 0.275 µM (active) | 5.83 µM (inactive) |
| CC1OC(OC2C[C@](O)(C(=O)CF)Cc3c(O)c4c(c(O)c32)C(=O)c2ccccc2C4=O)CC(N)C1O (some centres undefined) | 0.0103 µM (active) | < 0.01 µM (active) | 0.0794 µM (active) | 0.0637 µM (active) | < 0.01 µM (active) | < 0.01 µM (active) | < 0.01 µM (active) | < 0.01 µM (active) | < 0.0156 µM (active) | 0.0483 µM (active) | 0.163 µM (active) | < 0.0109 µM (active) | 0.0719 µM (active) | 0.0561 µM (active) | 0.0178 µM (active) | < 0.01 µM (active) | 0.0194 µM (active) | 0.0202 µM (active) | < 0.0104 µM (active) | < 0.01 µM (active) |
| Cc1cccc(C)c1NC(=O)/C(Cl)=C(/Cl)C(=O)O | 33.3 µM (inactive) | 26.5 µM (inactive) | 16.1 µM (inactive) | 18.8 µM (inactive) | 15.4 µM (inactive) | 19.1 µM (inactive) | 21.1 µM (inactive) | 8.41 µM (inactive) | 17.5 µM (inactive) | 15.5 µM (inactive) | 18 µM (inactive) | 14.7 µM (inactive) | 20.4 µM (inactive) | 23.1 µM (inactive) | 19.9 µM (inactive) | 20.8 µM (inactive) | 21.8 µM (inactive) | 4.33 µM (inactive) | 13.7 µM (inactive) | 30.8 µM (inactive) |
| O=C(O)Cc1cccc2c(=O)cc(-c3ccccc3)oc12 [MITOFLAXONE] | 149 µM (inactive) | > 940 µM (inactive) | > 250 µM (inactive) | 244 µM (inactive) | > 250 µM (inactive) | > 250 µM (inactive) | 206 µM (inactive) | 321 µM (inactive) | > 250 µM (inactive) | – | > 250 µM (inactive) | > 250 µM (inactive) | 242 µM (inactive) | > 250 µM (inactive) | > 250 µM (inactive) | 236 µM (inactive) | 242 µM (inactive) | 228 µM (inactive) | > 250 µM (inactive) | > 250 µM (inactive) |
